# Patent publication US20240208970A1, “SUBSTITUTED HYDANTOIN COMPOUNDS, METHODS FOR PREPARATION THEREOF AND USE THEREOF IN THE TREATMENT AND/OR PREVENTION OF A CORONA VIRUS DISEASE” (priority 2021, published 2024)
# pIC50: −log10 of the molar value.
# Molecular target: SARS-CoV-2 M^pro protease (Severe acute respiratory syndrome coronavirus 2 (2019-nCoV) (SARS-CoV-2), UniProt P0DTD1)
# Assay: biochemical
# Assay type: biochemical
# Conditions: Tables 5B-5E; M^pro 75 nM, substrate 10 μM
row,Compound,pIC50
1,"O=C1NC2(CC(c3ccccc3F)C2)C(=O)N1c1cncc2ccccc12 (stereo not shown) [Compound 18, 2-(2-fluorophenyl)-7-(isoquinolin-4-yl)-5,7-diazaspiro[3.4]octane-6,8-dione]",6.47
2,"O=C1NC2(CC(c3ccccc3F)C2)C(=O)N1c1cncc2ccccc12 (stereo not shown) [Compound 19, 2-(2-fluorophenyl)-7-(isoquinolin-4-yl)-5,7-diazaspiro[3.4]octane-6,8-dione]",6.49
3,"COc1ccccc1C1CC2(C1)NC(=O)N(c1cncc3ccccc13)C2=O (stereo not shown) [Compound 20, 7-(isoquinolin-4-yl)-2-(2-methoxyphenyl)-5,7-diazaspiro[3.4]octane-6,8-dione]",6.32
4,"O=C1NC2(CC(c3ccccc3C(F)(F)F)C2)C(=O)N1c1cncc2ccccc12 (stereo not shown) [Compound 22, 7-(isoquinolin-4-yl)-2-(2-(trifluoromethyl)phenyl)-5,7-diazaspiro[3.4]octane-6,8-dione]",6.71
5,"Cc1ccccc1C1CC2(C1)NC(=O)N(c1cncc3ccccc13)C2=O (stereo not shown) [Compound 23, 7-(isoquinolin-4-yl)-2-(o-tolyl)-5,7-diazaspiro[3.4]octane-6,8-dione]",6.03
6,"N#Cc1ccccc1C1CC2(C1)NC(=O)N(c1cncc3ccccc13)C2=O (stereo not shown) [Compound 24, 2-(7-(isoquinolin-4-yl)-6,8-dioxo-5,7-diazaspiro[3.4]octan-2-yl)benzonitrile]",7.07
7,"O=C1NC2(CC(c3cccc(Cl)c3)C2)C(=O)N1c1cncc2ccccc12 (stereo not shown) [Compound 25, 2-(3-chlorophenyl)-7-(isoquinolin-4-yl)-5,7-diazaspiro[3.4]octane-6,8-dione]",6.03
8,"O=C1NC2(CC(c3ccc(F)cc3)C2)C(=O)N1c1cncc2ccccc12 (stereo not shown) [Compound 27, 2-(4-fluorophenyl)-7-(isoquinolin-4-yl)-5,7-diazaspiro[3.4]octane-6,8-dione]",6.36
9,"O=C1NC2(CC(c3ccc(F)cc3Cl)C2)C(=O)N1c1cncc2ccccc12 (stereo not shown) [Compound 32, 2-(2-chloro-4-fluorophenyl)-7-(isoquinolin-4-yl)-5,7-diazaspiro[3.4]octane-6,8-dione]",7.02
10,"O=C1NC2(CC(c3ccc(F)cc3Cl)C2)C(=O)N1c1cncc2ccccc12 (stereo not shown) [Compound 33, 2-(2-chloro-4-fluorophenyl)-7-(isoquinolin-4-yl)-5,7-diazaspiro[3.4]octane-6,8-dione]",7.00
11,"O=C1NC2(CC(c3cn(Cc4ccccc4)nn3)C2)C(=O)N1c1cncc2ccccc12 (stereo not shown) [Compound 47, 2-(1-benzyl-1H-1,2,3-triazol-4-yl)-7-(isoquinolin-4-yl)-5,7-diazaspiro[3.4]octane-6,8-dione]",4.97
12,"O=C1NC2(CC(OCc3ccccc3)C2)C(=O)N1c1cncc2ccccc12 (stereo not shown) [Compound 48, 2-(benzyloxy)-7-(isoquinolin-4-yl)-5,7-diazaspiro[3.4]octane-6,8-dione]",5.59
13,"O=C1NC2(CC(c3ccccc3Cl)C2)C(=O)N1c1cncc2ccc(F)cc12 (stereo not shown) [Compound 54, 2-(2-chlorophenyl)-7-(6-fluoroisoquinolin-4-yl)-5,7-diazaspiro[3.4]octane-6,8-dione]",7.18
14,"O=C1NC2(CC(c3ccccc3Cl)C2)C(=O)N1c1cncc2cc(F)ccc12 (stereo not shown) [Compound 55, 2-(2-chlorophenyl)-7-(7-fluoroisoquinolin-4-yl)-5,7-diazaspiro[3.4]octane-6,8-dione]",6.73
15,"COc1ccc2cncc(N3C(=O)NC4(CC(C5CCC5)C4)C3=O)c2c1 (stereo not shown) [Compound 57, 2-cyclobutyl-7-(6-methoxyisoquinolin-4-yl)-5,7-diazaspiro[3.4]octane-6,8-dione]",6.47
16,"Cc1ccc2cncc(N3C(=O)NC4(CC(C5CCC5)C4)C3=O)c2c1 (stereo not shown) [Compound 58, 2-cyclobutyl-7-(6-methylisoquinolin-4-yl)-5,7-diazaspiro[3.4]octane-6,8-dione]",6.44
17,"CN1C(=O)N(c2cncc3ccccc23)C(=O)C12CC(c1ccccc1Br)C2 (stereo not shown) [Compound 67, 2-(2-bromophenyl)-7-(isoquinolin-4-yl)-5-methyl-5,7-diazaspiro[3.4]octane-6,8-dione]",6.85
18,"CN1C(=O)N(c2cncc3ccccc23)C(=O)C12CC(c1ccccc1Cl)C2 (stereo not shown) [Compound 68, 2-(2-chlorophenyl)-7-(isoquinolin-4-yl)-5-methyl-5,7-diazaspiro[3.4]octane-6,8-dione]",6.34
19,"CN1C(=O)N(c2cncc3ccccc23)C(=O)C12CC(C1CCC1)C2 (stereo not shown) [Compound 69, 2-cyclobutyl-7-(isoquinolin-4-yl)-5-methyl-5,7-diazaspiro[3.4]octane-6,8-dione]",6.25

row,Compound,pIC50
1,"NC(=O)CN1C(=O)N(c2cncc3ccccc23)C(=O)C12CC(C1CCC1)C2 (stereo not shown) [Compound 70, 2-(2-cyclobutyl-7-(isoquinolin-4-yl)-6,8-dioxo-5,7-diazaspiro[3.4]octan-5-yl)acetamide]",6.03
2,"O=C1N(c2cncc3ccccc23)C(=O)C2(CC(C3CCC3)C2)N1Cc1cc(Cl)nc(Cl)c1 (stereo not shown) [Compound 71, 2-cyclobutyl-5-((2,6-dichloropyridin-4-yl)methyl)-7-(isoquinolin-4-yl)-5,7-diazaspiro[3.4]octane-6,8-dione]",5.97
3,"N#CCN1C(=O)N(c2cncc3ccccc23)C(=O)C12CC(C1CCC1)C2 (stereo not shown) [Compound 72, 2-(2-cyclobutyl-7-(isoquinolin-4-yl)-6,8-dioxo-5,7-diazaspiro[3.4]octan-5-yl)acetonitrile]",5.87
4,"O=C(CN1C(=O)N(c2cncc3ccccc23)C(=O)C12CC(C1CCC1)C2)c1ccccn1 (stereo not shown) [Compound 73, 2-cyclobutyl-7-(isoquinolin-4-yl)-5-(2-oxo-2-(pyridin-2-yl)ethyl)-5,7-diazaspiro[3.4]octane-6,8-dione]",5.84
5,"C=CCN1C(=O)N(c2cncc3ccccc23)C(=O)C12CC(C1CCC1)C2 (stereo not shown) [Compound 74, 5-allyl-2-cyclobutyl-7-(isoquinolin-4-yl)-5,7-diazaspiro[3.4]octane-6,8-dione]",5.82
6,"CCN1C(=O)N(c2cncc3ccccc23)C(=O)C12CC(C1CCC1)C2 (stereo not shown) [Compound 75, 2-cyclobutyl-5-ethyl-7-(isoquinolin-4-yl)-5,7-diazaspiro[3.4]octane-6,8-dione]",5.70
7,"O=C1N(c2cncc3ccccc23)C(=O)C2(CC(C3CCC3)C2)N1Cc1ccccn1 (stereo not shown) [Compound 76, 2-cyclobutyl-7-(isoquinolin-4-yl)-5-(pyridin-2-ylmethyl)-5,7-diazaspiro[3.4]octane-6,8-dione]",5.61
8,"O=C1N(c2cncc3ccccc23)C(=O)C2(CC(C3CCC3)C2)N1Cc1ncc[nH]1 (stereo not shown) [Compound 77, 5-((1H-imidazol-2-yl)methyl)-2-cyclobutyl-7-(isoquinolin-4-yl)-5,7-diazaspiro[3.4]octane-6,8-dione]",5.60
9,"O=C1CCCN1CN1C(=O)N(c2cncc3ccccc23)C(=O)C12CC(C1CCC1)C2 (stereo not shown) [Compound 78, 2-cyclobutyl-7-(isoquinolin-4-yl)-5-((2-oxopyrrolidin-1-yl)methyl)-5,7-diazaspiro[3.4]octane-6,8-dione]",5.51
10,"CC(=O)N1C(=O)N(c2cncc3ccccc23)C(=O)C12CC(C1CCC1)C2 (stereo not shown) [Compound 79, 5-acetyl-2-cyclobutyl-7-(isoquinolin-4-yl)-5,7-diazaspiro[3.4]octane-6,8-dione]",5.51
11,"O=C1N(c2cncc3ccccc23)C(=O)C2(CC(C3CCC3)C2)N1Cc1ccn[nH]1 (stereo not shown) [Compound 80, 5-((1H-pyrazol-5-yl)methyl)-2-cyclobutyl-7-(isoquinolin-4-yl)-5,7-diazaspiro[3.4]octane-6,8-dione]",5.42
12,"O=C1NC2(CC(c3ccccc3Cl)C2)C(=O)N1c1cccnn1 (stereo not shown) [Compound 81, 2-(2-chlorophenyl)-7-(pyridazin-3-yl)-5,7-diazaspiro[3.4]octane-6,8-dione]",6.38
13,"O=C1NC2(CC(c3ccccc3Cl)C2)C(=O)N1c1cc(Br)cnc1F (stereo not shown) [Compound 85, 7-(5-bromo-2-fluoropyridin-3-yl)-2-(2-chlorophenyl)-5,7-diazaspiro[3.4]octane-6,8-dione]",6.49
14,"O=C1NC2(CC(c3cc(F)c(F)cc3Cl)C2)C(=O)N1c1cncc2ccccc12 (stereo not shown) [Compound 87, 2-(2-chloro-4,5-difluorophenyl)-7-(isoquinolin-4-yl)-5,7-diazaspiro[3.4]octane-6,8-dione]",6.94
15,"Cc1ccnc(F)c1N1C(=O)NC2(CC(c3ccccc3Cl)C2)C1=O (stereo not shown) [Compound 90, 2-(2-chlorophenyl)-7-(2-fluoro-4-methylpyridin-3-yl)-5,7-diazaspiro[3.4]octane-6,8-dione]",6.65
16,"COc1ccnc(F)c1N1C(=O)NC2(CC(c3ccccc3Cl)C2)C1=O (stereo not shown) [Compound 91, 2-(2-chlorophenyl)-7-(2-fluoro-4-methoxypyridin-3-yl)-5,7-diazaspiro[3.4]octane-6,8-dione]",< 4.30
17,"O=C1NC2(CC(c3ccccc3Cl)C2)C(=O)N1c1cnccc1C(F)(F)F (stereo not shown) [Compound 92, 2-(2-chlorophenyl)-7-(4-(trifluoromethyl)pyridin-3-yl)-5,7-diazaspiro[3.4]octane-6,8-dione]",6.51
18,"CN(C)c1ccncc1N1C(=O)NC2(CC(c3ccccc3Cl)C2)C1=O (stereo not shown) [Compound 93, 2-(2-chlorophenyl)-7-(4-(dimethylamino)pyridin-3-yl)-5,7-diazaspiro[3.4]octane-6,8-dione]",6.80
19,"O=C1NC2(CC(c3ccccc3Cl)C2)C(=O)N1c1cnnc2ccccc12 (stereo not shown) [Compound 94, 2-(2-chlorophenyl)-7-(cinnolin-4-yl)-5,7-diazaspiro[3.4]octane-6,8-dione]",5.74

# Same assay, conditions: percent of control activity at 750 nM; read-out: % activity at 750 nM
row,Compound,activity at […]
1,"O=C1NC2(CC(c3ccccc3Cl)C2)C(=O)N1c1c(Cl)ncc2ccccc12 (stereo not shown) [Compound 86, 7-(3-chloroisoquinolin-4-yl)-2-(2-chlorophenyl)-5,7-diazaspiro[3.4]octane-6,8-dione]",57%

# Same assay, conditions: percent of control activity at 2500 nM; read-out: % activity at 2500 nM
row,Compound,activity at […]
1,"O=C1NC2(CC(c3ccccc3Cl)C2)C(=O)N1c1cnccc1Oc1ccccc1 (stereo not shown) [Compound 82, 2-(2-chlorophenyl)-7-(4-phenoxypyridin-3-yl)-5,7-diazaspiro[3.4]octane-6,8-dione]",55%
